# Results as given in patent US7045515B2, “β-lactam compounds process for reproducing the same and serum cholesterol-lowering agents containing the same” (Kotobuki Pharmaceutical Co., Ltd., priority 2001, dated 2006).
row,Structure (SMILES),melting point [°C]
1,"CC(=O)OC[C@H]1O[C@@H](Cc2ccc([C@@H]3[C@@H](CCCc4ccc(F)cc4)C(=O)N3c3ccc(F)cc3)cc2)[C@H](OC(C)=O)[C@@H](OC(C)=O)[C@@H]1OC(C)=O (relative stereo) [Compound 3, (3S,2R,4R,5R,6R)-2-[(4-{(4S*,3R*)-1-(4-Fluorophenyl)-3-[3-(4-fluorophenyl)propyl]-2-oxoazetidine-4-yl}phenyl)methyl]-4,5-diacetyloxy-6-(acetoxymethyl)perhydro-2H-pyran-3-ylacetate]",56 to 58
2,"O=C1[C@H](CCCc2ccc(F)cc2)[C@@H](c2ccc(C[C@@H]3O[C@H](CO)[C@@H](O)[C@H](O)[C@H]3O)cc2)N1c1ccc(Cl)cc1 (relative stereo) [Compound 4, (4S*,3R*)-4-(4-{[(2S,5S,3R,4R,6R)-3,4,5-Trihydroxy-6-(hydroxymethyl)perhydro-2H-pyran-2-yl]methyl}phenyl)-1-(4-chlorophenyl)-3-[3-(4-fluorophenyl)propyl]azetidine-2-one]",76 to 78
3,"COc1ccc(N2C(=O)[C@H](CCCc3ccc(F)cc3)[C@H]2c2ccc(CC3O[C@H](CO)[C@@H](O)[C@H](O)[C@H]3O)cc2)cc1 (relative stereo) [Compound 5, (4S*,3R*)-4-(4-{[(5S,2R,3R,4R,6R)-3,4,5-Trihydroxy-6-(hydroxymethyl)perhydro-2H-pyran-2-yl]methyl}phenyl)-1-(4-methoxyphenyl)-3-[3-(4-fluorophenyl)propyl]azetidine-2-one]",73 to 75
4,"COc1ccc(N2C(=O)[C@H](CCCc3ccc(F)cc3)[C@H]2c2ccc(C[C@@H]3O[C@H](COC(C)=O)[C@@H](OC(C)=O)[C@H](OC(C)=O)[C@H]3OC(C)=O)cc2)cc1 (relative stereo) [Compound 6, (3S,2R,4R,5R,6R)-2-[(4-{(4S*,3R*)-1-(4-Methoxyphenyl)-3-[3-(4-fluorophenyl)propyl]-2-oxoazetidine-4-yl}phenyl)methyl]-4,5-diacetyloxy-6-(acetoxymethyl)perhydro-2H-pyran-3-ylacetate]",60 to 62
5,"Cc1ccc(N2C(=O)[C@H](CCCc3ccc(F)cc3)[C@H]2c2ccc(CC3O[C@H](CO)[C@@H](O)[C@H](O)[C@H]3O)cc2)cc1 (relative stereo) [Compound 7, (4S*,3R*)-4-(4-{[(5S,2R,3R,4R,6R)-3,4,5-Trihydroxy-6-(hydroxymethyl)perhydro-2H-pyran-2-yl]methyl}phenyl)-1-(4-methylphenyl)-3-[3-(4-fluorophenyl)propyl]azetidine-2-one]",80 to 82
6,"CC(=O)OC[C@H]1O[C@@H](Cc2ccc([C@@H]3[C@@H](CCCc4ccc(F)cc4)C(=O)N3c3ccc(C)cc3)cc2)[C@H](OC(C)=O)[C@@H](OC(C)=O)[C@@H]1OC(C)=O (relative stereo) [Compound 8, (3S,2R,4R,5R,6R)-2-[(4-{(4S*,3R*)-1-(4-Methylphenyl)-3-[3-(4-fluorophenyl)propyl]-2-oxoazetidine-4-yl}phenyl)methyl]-4,5-diacetyloxy-6-(acetoxymethyl)perhydro-2H-pyran-3-ylacetate]",56 to 58
7,"O=C1[C@H](CCCc2ccc(F)cc2)[C@@H](c2ccc(CC3O[C@H](CO)[C@@H](O)[C@H](O)[C@H]3O)cc2)N1c1ccccc1 (relative stereo) [Compound 9, (4S*,3R*)-4-(4-{[(5S,2R,3R,4R,6R)-3,4,5-Trihydroxy-6-(hydroxymethyl)perhydro-2H-pyran-2-yl]methyl}phenyl)-1-phenyl-3-[3-(4-fluorophenyl)propyl]azetidine-2-one]",84 to 86
8,"CC(=O)OC[C@H]1O[C@@H](Cc2ccc([C@@H]3[C@@H](CCCc4ccc(F)cc4)C(=O)N3c3ccccc3)cc2)[C@H](OC(C)=O)[C@@H](OC(C)=O)[C@@H]1OC(C)=O (relative stereo) [Compound 10, (3S,2R,4R,5R,6R)-2-[(4-{(4S*,3R*)-1-phenyl-3-[3-(4-fluorophenyl)propyl]-2-oxoazetidine-4-yl}phenyl)methyl]4,5-diacetyloxy-6-(acetoxymethyl)perhydro-2H-pyran-3-ylacetate]",60 to 61
